“Also recorded” adds a separate entry of the source. Square brackets hold non-standard residues; d marks the D form. Peptide text beside a SMILES is read from it. Dmt = Cc1cc(O)cc(C)c1C[C@H](N)C(=O)O; dOrn = NCCC[C@@H](N)C(=O)O
Tests used:
[1] = system: Excised Sprague-Dawley rat hearts; experiment: Modified Langendorff rat heart model, ischemia/reperfusion with peptide in the reperfusion buffer (Example 1); details: 1 μM peptide in Krebs buffer during 2 hours reperfusion after 20 min global no-flow ischemia; compared to controls
Protocol: (§1) The Langendorff rodent heart model is widely employed in studies of myocardial function and responses to injury (e.g., ischemia). For whole-heart studies, male Sprague-Dawley rats (7-9 weeks old) were injected with pentobarbital (35 mg/kg, ip injection) and hearts were excised with midline thoracotomy. The aortas were secured around a cannula of a modified Langendorff apparatus and retrogradely perfused (perfusion pressure of 75 mm Hg) with a modified Krebs-Henseleit buffer containing (in mM): 118 NaCl, 24 NaHCO3, 4.75 KCl, 1.2 KH2PO4, 1.2 MgSO4, 2.0 CaCl2, and 10 glucose (gassed with 95/5% O2/CO2). Hearts were bathed in a buffer-filled perfusion chamber maintained at 37° C. for the duration of the experiments. Following the initiation of perfusion, hearts were instrumented for the simultaneous observation of mechanical and electrical function. A buffer-filled latex balloon (size 5, Harvard Apparatus, Holliston, Mass., USA), calibrated at the beginning of each day using a digital manometer, was inserted into the left ventricle (via the mitral valve) for the measurement of left ventricular developed pressure (LVDP), with balloon volume adjusted to establish a diastolic pressure of 5-8 mm Hg. Three electrodes were placed into the buffer filled perfusion chamber for the measurement of the volume-conducted electrocardiogram (ECG). Coronary flow rates were monitored constantly with a flow probe (Transconic Systems, Ithaca, N.Y., USA) connected in series with the perfusion line, and normalized to heart wet weight (in grams) at the end of each experiment. All physiological parameters were continuously monitored and stored on a personal computer using commercially available software (Chart, AD Instruments, Colorado Springs, Colo., USA). Heart rate was calculated using the LVDP trace, and maximal rates of contraction(+dP/dt) and relaxation (−dP/dt) were calculated using the derivative of the LVDP trace.
Following a 10 minute baseline period, ischemia/reperfusion was initiated. Hearts were exposed to global no-flow ischemia by stopping perfusion for 20 min. At the end of the index ischemia, static buffer from the perfusion lines was washed out (via an accessory port proximal to the aortic cannula), and reperfusion ensued for 2 hours either with Krebs buffer alone (control) or Krebs buffer containing an experimental peptide at a concentration of 1 μM. Peptides tested included D-Arg-D-Dmt-D-Lys-L-Phe-NH2 (SBT-46), D-Arg-L-DMT-L-Ala-L-Phe-NH2 (SBT-68), (Ac)-D-Arg-L-DMT-L-Lys-L-Phe-NH2 (SBT-85), D-Arg-L-Dmt-L-His-L-Phe-NH2(SBT-100), D-Arg-L-DMT-L-Orn-L-Phe-NH2 (SBT-102), D-Orn-L-DMT-L-Lys-L-Phe-NH2(SBT-131), D-(Amidine)Arg(propylamine)-L-DMT-L-Lys-L-Phe-NH2 (SBT-140), and D-Arg(butylamidine analog)-L-DMT-L-Lys-L-Phe-NH2(SBT-149). At the end of reperfusion, the left ventricle was dissected, sliced into 5 mm-thick slices, incubated in 1% triphenyltetrazolium chloride (TTC) for 10 min (37° C.) and digitally photographed for subsequent infarct size analysis. Infarct size was expressed as a percentage of the left ventricle (% area at risk (AAR))(calculated using ImageJ software, NIH, Bethesda, Md., USA).

excised rat hearts = experiment: Modified Langendorff rat heart model, peptide pre-treatment before ischemia/reperfusion (Example 2); details: hearts bathed 2 hours in 1 μM peptide before 20 min ischemia and 2 hours reperfusion; vs SBT-46, SBT-102 and controls; anticipated
Protocol: as §1, with “are” for “were”, “USA), which is” for “USA),”, “is” for “was”
Prior to the initiation of ischemia/reperfusion, the excised rat hearts are bathed in buffer containing an experimental peptide at a concentration of 1 μM or buffer alone (control) for two hours. The experimental peptide is selected from D-Arg-D-Dmt-D-Lys-L-Phe-NH2 (SBT-46), D-Arg-L-DMT-L-Ala-L-Phe-NH2 (SBT-68), (Ac)-D-Arg-L-DMT-L-Lys-L-Phe-NH2 (SBT-85), D-Arg-L-Dmt-L-His-L-Phe-NH2(SBT-100), D-Arg-L-DMT-L-Orn-L-Phe-NH2 (SBT-102), D-Orn-L-DMT-L-Lys-L-Phe-NH2(SBT-131), D-(Amidine)Arg(propylamine)-L-DMT-L-Lys-L-Phe-NH2(SBT-140), and D-Arg(butylamidine analog)-L-DMT-L-Lys-L-Phe-NH2 (SBT-149). Following a 10 minute baseline period, ischemia/reperfusion is initiated. Hearts are exposed to global no-flow ischemia by stopping perfusion for 20 min. At the end of the index ischemia, static buffer from the perfusion lines is washed out (via an accessory port proximal to the aortic cannula), and reperfusion ensues for 2 hours with Krebs buffer. At the end of reperfusion, the left ventricle is dissected, sliced into 5 mm-thick slices, incubated in 1% triphenyltetrazolium chloride (TTC) for 10 min (37° C.) and digitally photographed for subsequent infarct size analysis. Infarct size is expressed as a percentage of the left ventricle (% area at risk (AAR))(calculated using ImageJ software, NIH, Bethesda, Md., USA).

Row | Molecule | attenuation of cardiac ischemia injury and ischemia-reperfusion injury [1] | infarct size expressed as a percentage of area at risk (AAR) [1] | left ventricular developed pressure (LVDP) [1] | maximal rates of contraction (+dP/dt) [1] | maximal rates of relaxation (−dP/dt) [1] | LVDP (excised rat hearts) | infarct size (excised rat hearts) | maximal rates of contraction (+dP/dt) (excised rat hearts) | maximal rates of relaxation (−dP/dt) (excised rat hearts)
1 | Cc1cc(O)cc(C)c1C[C@H](NC(=O)[C@H](N)CCCNC(=N)N)C(=O)N[C@@H](C)C(=O)N[C@@H](Cc1ccccc1)C(N)=O [SBT-68, D-Arg-L-DMT-L-Ala-L-Phe-NH2] (H-[dR][Dmt]AF-NH2) | able to attenuate cardiac ischemia injury and ischemia-reperfusion injury; also recorded: attenuation of cardiac ischemia-reperfusion injury | reduced infarct size | increased LVDP | increased maximal rates of contraction | increased maximal rates of relaxation | increased LVDP | reduced infarct size | increased maximal rates of contraction | increased maximal rates of relaxation
2 | CC(=O)N[C@H](CCCNC(=N)N)C(=O)N[C@@H](Cc1c(C)cc(O)cc1C)C(=O)N[C@@H](CCCCN)C(=O)N[C@@H](Cc1ccccc1)C(N)=O [SBT-85, (Ac)-D-Arg-L-DMT-L-Lys-L-Phe-NH2] (Ac-[dR][Dmt]KF-NH2) | able to attenuate cardiac ischemia injury and ischemia-reperfusion injury; also recorded: attenuation of cardiac ischemia-reperfusion injury | reduced infarct size | increased LVDP | increased maximal rates of contraction | increased maximal rates of relaxation | increased LVDP | reduced infarct size | increased maximal rates of contraction | increased maximal rates of relaxation
3 | Cc1cc(O)cc(C)c1C[C@H](NC(=O)[C@H](N)CCCNC(=N)N)C(=O)N[C@@H](Cc1cnc[nH]1)C(=O)N[C@@H](Cc1ccccc1)C(N)=O [SBT-100, D-Arg-L-Dmt-L-His-L-Phe-NH2] (H-[dR][Dmt]HF-NH2) | able to attenuate cardiac ischemia injury and ischemia-reperfusion injury; also recorded: attenuation of cardiac ischemia-reperfusion injury | reduced infarct size | increased LVDP | increased maximal rates of contraction | increased maximal rates of relaxation | increased LVDP | reduced infarct size | increased maximal rates of contraction | increased maximal rates of relaxation
4 | Cc1cc(O)cc(C)c1C[C@H](NC(=O)[C@H](N)CCCN)C(=O)N[C@@H](CCCCN)C(=O)N[C@@H](Cc1ccccc1)C(N)=O [SBT-131, D-Orn-L-DMT-L-Lys-L-Phe-NH2] (H-[dOrn][Dmt]KF-NH2) | able to attenuate cardiac ischemia injury and ischemia-reperfusion injury; also recorded: attenuation of cardiac ischemia-reperfusion injury | reduced infarct size | increased LVDP | increased maximal rates of contraction | increased maximal rates of relaxation | increased LVDP | reduced infarct size | increased maximal rates of contraction | increased maximal rates of relaxation
5 | Cc1cc(O)cc(C)c1C[C@H](NC(=O)[C@@H](CCCN)NC(=N)N)C(=O)N[C@@H](CCCCN)C(=O)N[C@@H](Cc1ccccc1)C(N)=O [SBT-140, D-(Amidine)Arg(propylamine)-L-DMT-L-Lys-L-Phe-NH2] | able to attenuate cardiac ischemia injury and ischemia-reperfusion injury; also recorded: attenuation of cardiac ischemia-reperfusion injury | reduced infarct size | increased LVDP | increased maximal rates of contraction | increased maximal rates of relaxation | increased LVDP | reduced infarct size | increased maximal rates of contraction | increased maximal rates of relaxation
6 | D-Arg-D-Dmt-D-Lys-L-Phe-NH2 [SBT-46] | does not attenuate cardiac ischemia-reperfusion injury | did not reduce infarct size | did not reduce infarct size, increase LVDP | did not reduce infarct size, increase LVDP, or increase the maximal rates of contraction and relaxation | did not reduce infarct size, increase LVDP, or increase the maximal rates of contraction and relaxation |  |  |  | 
7 | D-Arg-L-Dmt-L-Orn-L-Phe-NH2 [SBT-102] | does not attenuate cardiac ischemia-reperfusion injury | did not reduce infarct size | did not reduce infarct size, increase LVDP | did not reduce infarct size, increase LVDP, or increase the maximal rates of contraction and relaxation | did not reduce infarct size, increase LVDP, or increase the maximal rates of contraction and relaxation |  |  |  | 

Reference: patent US11548913B2, “Therapeutic compositions including peptides and uses thereof” (Stealth BioTherapeutics Inc., priority 2015, dated 2023)
